{"source": "patent US20060116368A1", "about": "“4-Piperidinecarboxamide modulators of vanilloid VR1 receptor” (priority 2004, published 2006)", "key": {"hVR1 receptors": {"target": "T1, hVR1 receptors (Homo sapiens, UniProt Q8NER1)", "T1 construct": "expressed in transfected cells; host or cells: HEK293", "T1 sequence (Q8NER1 whole entry)": "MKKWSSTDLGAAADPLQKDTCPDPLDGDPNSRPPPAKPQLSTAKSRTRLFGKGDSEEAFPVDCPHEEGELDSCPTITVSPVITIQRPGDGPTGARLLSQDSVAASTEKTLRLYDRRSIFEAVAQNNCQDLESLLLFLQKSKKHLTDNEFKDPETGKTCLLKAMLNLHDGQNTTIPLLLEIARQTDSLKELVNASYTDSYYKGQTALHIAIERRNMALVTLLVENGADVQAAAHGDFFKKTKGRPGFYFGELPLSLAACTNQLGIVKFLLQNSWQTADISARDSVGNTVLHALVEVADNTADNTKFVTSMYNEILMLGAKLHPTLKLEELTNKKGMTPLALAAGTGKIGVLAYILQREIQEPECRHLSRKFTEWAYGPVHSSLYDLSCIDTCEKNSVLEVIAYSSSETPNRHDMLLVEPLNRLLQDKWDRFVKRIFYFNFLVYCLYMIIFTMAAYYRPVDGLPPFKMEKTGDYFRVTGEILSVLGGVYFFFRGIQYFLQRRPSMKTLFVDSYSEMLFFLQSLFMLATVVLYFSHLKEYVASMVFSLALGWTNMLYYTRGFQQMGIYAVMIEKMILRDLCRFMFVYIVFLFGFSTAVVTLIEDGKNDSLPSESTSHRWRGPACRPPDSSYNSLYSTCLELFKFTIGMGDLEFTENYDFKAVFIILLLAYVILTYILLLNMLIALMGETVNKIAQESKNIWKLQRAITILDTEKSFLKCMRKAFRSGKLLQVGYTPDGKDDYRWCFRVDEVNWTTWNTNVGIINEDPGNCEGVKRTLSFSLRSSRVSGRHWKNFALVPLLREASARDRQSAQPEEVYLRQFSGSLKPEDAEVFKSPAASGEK", "test": "Human VR1 binding assay ([3H]RTX)", "settings": "membranes of HEK293 cells transfected with human VR1; for Ki: [3H]RTX binding; for h Binding % I (1 uM): inhibition of [3H]RTX binding", "protocol": "Compounds of the present invention were tested for their ability to inhibit the binding of [^3H] RTX to hVR1 receptors in a [^3H] RTX binding assay as previously described (Zhang, Sui-Po. Improved ligand binding assays for vanilloid receptors. PCT Int. Appl. (2002), WO 0233411 A1 20020425 AN 2002:315209, and Grant, Elfrida R., Dubin, Adrienne E., Zhang, Sui-Po, Zivin, Robert A., Zhong, Zhong Simultaneous intracellular calcium and sodium flux imaging in human vanilloid receptor 1 (VR1)-transfected human embryonic kidney cells: a method to resolve ionic dependence of VR1-mediated cell death. J. Pharmacol. Exp. Ther., 2002, 300(1), 9-17.)\nHEK293 cells were transfected with human VR1 vanilloid receptors and washed with Hank's balanced Salt Solution, dissociated with cell dissociation buffer (Sigma), and then centrifuged at 1000×g for 5 min. Cell pellets were homogenized in cold 20 mM HEPES buffer, pH 7.4, containing 5.8 mM NaCl, 320 mM sucrose, 2 mM MgCl2, 0.75 CaCl2 and 5 mM KCl and centrifuged at 1000×g for 15 min. The resultant supernate was then centrifuged at 40000×g for 15 min. The pelleted membranes were stored in a freezer at −80° C.\nApproximately 120 μg protein/ml from membranes were incubated with indicated concentrations of [^3H]RTX in 0.5 ml of the HEPES buffer (pH 7.4) containing 0.25 mg/mL fatty acid-free bovine serum albumin at 37° C. for 60 min. The reaction mixture was then cooled to 4° C., added 0.1 mg α1-acid glycoprotein to each sample and incubated at 4° C. for 15 min. The samples were centrifuged at 18500×g for 15 min. The tip of the microcentrifuge tube containing the pellet was cut off. Bound radioactivity was quantified by scintillation counting. Non-specific binding was tested in the presence of 200 nM unlabeled RTX.\nData were calculated according to the equation: % inhibition=(total binding−binding)*100/(total binding−non specific binding). Ki values were calculated using a Prism program."}, "[1]": {"target": "T2, Human Vanilloid Receptor 1 (Homo sapiens, UniProt Q8NER1)", "T2 construct": "expressed in transfected cells; host or cells: HEK 293", "T2 sequence (Q8NER1 whole entry)": "as above", "test": "Human VR1 functional assay using FLIPR, Protocol 1", "format": "cell-based", "settings": "for inhibition at 9 µM: HEK293, 9 uM, inhibition of capsaicin (EC80)-induced calcium response, HEK 293 cells transfected with hVR1, read-out: h % I (9 uM); for IC50: decreased capsaicin (EC80)-induced calcium response, HEK 293 hVR1, read-out: h IC50", "protocol": "The functional activity of the test compounds was determined by measuring changes in intracellular calcium concentration using FLIPR™ Calcium-3 Assay Kit and FLIPR™ technology.\nHEK 293 cells transfected with Human Vanilloid Receptor 1 were maintained at 37° C. and 5% CO2 in: Dulbecco's Modification of Eagle's Medium (high glucose, L-glutamine, pyridoxine HCl, No sodium pyruvate), 10% FBS, 1× Penicillin-Streptomycin-Amphotericin B, 200 ug/mL zeocin. Approximately 24 hours prior to assay, 30,000 cells/well were plated onto a 384-well black clear bottom poly-D-lysine-coated assay plate with a well volume of 25 µL using Titertek Multidrop.\nOn the day of the assay, the medium was dumped and 50 μL 1× dye were loaded using Multidrop. Plates were incubated with dye at 37° C. for 30 minutes followed by 30 minutes incubation at room temperature. Then the plates were assayed by FLIPR™ with 2 additions: 12.5 μL test compound with 5 minutes data acquisition followed by 12.5 μL capsaicin at the EC80 concentration.\nThe EC50 values of test compounds were calculated based on a test compound-induced calcium response at the 5-minute time point. The IC50 values of compounds were calculated based on a decreased capsaicin-induced calcium response in the presence of test compound."}}, "data": [{"smiles": "O=C1COc2ccc(NC(=O)C3CCN(c4ccc(F)c(F)c4)CC3)cc2N1", "note": "[Example 155, 1-(3,4-Difluoro-phenyl)-piperidine-4-carboxylic acid (3-oxo-3,4-dihydro-2H-benzo[1,4]oxazin-6-yl)-amide]", "values": [{"measurement": "Ki", "setting": "hVR1 receptors", "result": 56, "unit": "nM"}, {"measurement": "inhibition at 9 µM", "setting": "[1]", "result": 89, "unit": "%"}, {"measurement": "IC50", "setting": "[1]", "result": 850, "unit": "nM"}]}, {"smiles": "Cc1ccc(N2CCC(C(=O)Nc3ccc4c(c3)NC(=O)CO4)CC2)cc1C", "note": "[Example 144, 1-(3,4-Dimethyl-phenyl)-piperidine-4-carboxylic acid (3-oxo-3,4-dihydro-2H-benzo[1,4]oxazin-6-yl)-amide]", "values": [{"measurement": "Ki", "setting": "hVR1 receptors", "result": 314, "unit": "nM"}, {"measurement": "inhibition at 9 µM", "setting": "[1]", "result": 77, "unit": "%"}, {"measurement": "IC50", "setting": "[1]", "result": 380, "unit": "nM"}]}, {"smiles": "O=C1COc2ccc(NC(=O)C3CCN(c4cccc(Cl)c4)CC3)cc2N1", "note": "[Example 148, 1-(3-Chloro-phenyl)-piperidine-4-carboxylic acid (3-oxo-3,4-dihydro-2H-benzo[1,4]oxazin-6-yl)-amide]", "values": [{"measurement": "Ki", "setting": "hVR1 receptors", "result": 34, "unit": "nM"}, {"measurement": "inhibition at 9 µM", "setting": "[1]", "result": 88.7, "unit": "%"}, {"measurement": "IC50", "setting": "[1]", "result": 190, "unit": "nM"}]}, {"smiles": "O=C(Nc1ccc2ncsc2c1)C1CCN(c2cccc(C(F)(F)F)c2)CC1", "note": "[Example 13, 1-(3-Trifluoromethyl-phenyl)-piperidine-4-carboxylic acid benzothiazol-6-ylamide]", "values": [{"measurement": "h Binding % I (1 uM)", "setting": "hVR1 receptors", "result": 47.7, "unit": "%"}, {"measurement": "inhibition at 9 µM", "setting": "[1]", "result": 88, "unit": "%"}, {"measurement": "IC50", "setting": "[1]", "result": 480, "unit": "nM"}]}, {"smiles": "CC(=O)N1CCc2cccc(NC(=O)C3CCN(c4cccc(C(F)(F)F)c4)CC3)c21", "note": "[Example 9, 1-(3-Trifluoromethyl-phenyl)-piperidine-4-carboxylic acid (1-acetyl-2,3-dihydro-1H-indol-7-yl)-amide]", "values": [{"measurement": "h Binding % I (1 uM)", "setting": "hVR1 receptors", "result": 4.8, "unit": "%"}, {"measurement": "inhibition at 9 µM", "setting": "[1]", "result": 48.5, "unit": "%"}, {"measurement": "IC50", "setting": "[1]", "result": 5610, "unit": "nM"}]}, {"smiles": "CC(=O)c1cc2c(cc1NC(=O)C1CCN(c3cccc(C(F)(F)F)c3)CC1)OCO2", "note": "[Example 33, 1-(3-Trifluoromethyl-phenyl)-piperidine-4-carboxylic acid (6-acetyl-benzo[1,3]dioxol-5-yl)-amide]", "values": [{"measurement": "h Binding % I (1 uM)", "setting": "hVR1 receptors", "result": 12.8, "unit": "%"}, {"measurement": "inhibition at 9 µM", "setting": "[1]", "result": 12.6, "unit": "%"}]}, {"smiles": "O=C(Nc1cnc2ccccc2c1)C1CCN(c2ccccc2Br)CC1", "note": "[Example 53, 1-(2-Bromo-phenyl)-piperidine-4-carboxylic acid quinolin-3-ylamide]", "values": [{"measurement": "h Binding % I (1 uM)", "setting": "hVR1 receptors", "result": 47.3, "unit": "%"}, {"measurement": "inhibition at 9 µM", "setting": "[1]", "result": 104, "unit": "%"}, {"measurement": "IC50", "setting": "[1]", "result": 160, "unit": "nM"}]}, {"smiles": "Cc1ccccc1N1CCC(C(=O)Nc2ccc3c(c2)NC(=O)CO3)CC1", "note": "[Example 141, 1-o-Tolyl-piperidine-4-carboxylic acid (3-oxo-3,4-dihydro-2H-benzo[1,4]oxazin-6-yl)-amide]", "values": [{"measurement": "Ki", "setting": "hVR1 receptors", "result": 61, "unit": "nM"}, {"measurement": "inhibition at 9 µM", "setting": "[1]", "result": 100, "unit": "%"}, {"measurement": "IC50", "setting": "[1]", "result": 150, "unit": "nM"}]}, {"smiles": "Cc1ccc(N2CCC(C(=O)Nc3cnc4ccccc4c3)CC2)cc1C", "note": "[Example 6, 1-(3,4-Dimethyl-phenyl)-piperidine-4-carboxylic acid quinolin-3-ylamide]", "values": [{"measurement": "h Binding % I (1 uM)", "setting": "hVR1 receptors", "result": 66.5, "unit": "%"}, {"measurement": "Ki", "setting": "hVR1 receptors", "result": 215, "unit": "nM"}, {"measurement": "inhibition at 9 µM", "setting": "[1]", "result": 92.2, "unit": "%"}, {"measurement": "IC50", "setting": "[1]", "result": 350, "unit": "nM"}]}, {"smiles": "O=C1COc2ccc(NC(=O)C3CCN(c4ccccc4Cl)CC3)cc2N1", "note": "[Example 152, 1-(2-Chloro-phenyl)-piperidine-4-carboxylic acid (3-oxo-3,4-dihydro-2H-benzo[1,4]oxazin-6-yl)-amide]", "values": [{"measurement": "Ki", "setting": "hVR1 receptors", "result": 93, "unit": "nM"}, {"measurement": "inhibition at 9 µM", "setting": "[1]", "result": 90.7, "unit": "%"}, {"measurement": "IC50", "setting": "[1]", "result": 220, "unit": "nM"}]}, {"smiles": "O=C1COc2ccc(NC(=O)C3CCN(c4cc(F)cc(F)c4)CC3)cc2N1", "note": "[Example 154, 1-(3,5-Difluoro-phenyl)-piperidine-4-carboxylic acid (3-oxo-3,4-dihydro-2H-benzo[1,4]oxazin-6-yl)-amide]", "values": [{"measurement": "Ki", "setting": "hVR1 receptors", "result": 137, "unit": "nM"}, {"measurement": "inhibition at 9 µM", "setting": "[1]", "result": 96, "unit": "%"}, {"measurement": "IC50", "setting": "[1]", "result": 370, "unit": "nM"}]}, {"smiles": "O=C1COc2ccc(NC(=O)C3CCN(c4cccc(C(F)(F)F)c4)CC3)cc2N1", "note": "[Example 34, 1-(3-Trifluoromethyl-phenyl)-piperidine-4-carboxylic acid (3-oxo-3,4-dihydro-2H-benzo[1,4]oxazin-6-yl)-amide]", "values": [{"measurement": "Ki", "setting": "hVR1 receptors", "result": 65, "unit": "nM"}, {"measurement": "inhibition at 9 µM", "setting": "[1]", "result": 94.5, "unit": "%"}, {"measurement": "IC50", "setting": "[1]", "result": 210, "unit": "nM"}]}]}
